Patent US20200255492A1, “LEPTIN PEPTIDES AND THEIR USE FOR TREATING NEUROLOGICAL DISORDERS” (UNIVERSITY OF DUNDEE, priority 2017, published 2020)

Experiments:
acute hippocampal slices = experiment: HFS-induced LTP with leptin hexamers; type: cell-based, Sprague Dawley rats; settings: 10 nM for 50 min prior to HFS; control LTP 117±10.8% / 125±4.9%
Method: Parasagittal hippocampal slices (300 μm) were prepared from either P13-21 or 12-24-week-old male Sprague Dawley rats as previously (Moult et al. 2010). Brains were rapidly removed and placed in ice-cold artificial CSF (aCSF; bubbled with 95% O2 and 5% CO2) containing the following (in mm): 124 NaCl, 3 KCl, 26 NaHCO3, 1.25 NaH2PO4, 2 CaCl2, 1 MgSO4, and 10 d-glucose. Once prepared, parasagittal slices were allowed to recover at room temperature in oxygenated aCSF for 1 h before use. Slices were transferred to a submerged chamber maintained at room temperature and perfused with artificial cerebrospinal fluid at 2 ml min^−1. Standard extracellular recordings were used to monitor evoked field excitatory postsynaptic potentials (fEPSP) from stratum radiatum. The Schaffer collateral-commissural pathway was stimulated (constant voltage; 0.1 ms) at 0.033 Hz, using a stimulus intensity that evoked a peak amplitude ˜50% of the maximum. Synaptic potentials were low pass filtered at 2 kHz and digitally sampled at 10 kHz. The fEPSP slope was measured and expressed relative to baseline. Synaptic records are the average of 4 consecutive responses and stimulus artefacts are blanked for clarity. Recordings were made using an Axopatch 200B amplifier and analyzed using LTP v2.4 software. In synaptic plasticity studies, the degree of potentiation was calculated 30-35 min after HFS and expressed as a percentage of baseline±standard error of mean (SEM).
To determine if the leptin hexamers influence the magnitude of activity-dependent synaptic plasticity, standard extracellular recording techniques were used to assess the effects of leptin (116-121, 117-122, 118-123, 120-125, 124-129 and 125-130) on the magnitude of LTP induced by high frequency stimulation (100 Hz, 1 s) in acute hippocampal slices. […] In parallel studies, application of leptin (118-123; 158±3.8%; n=7; p<0.05; FIG. 8) or leptin (120-125; to 163±8.8% of baseline; n=5; p<0.05) also facilitated LTP, compared to control LTP (FIG. 8).

[1] = tested on: phosphorylated tau (p-tau); experiment: ELISA of phosphorylated tau relative to α-tubulin; type: cell-based, human; settings: 10 nM; n=5
Method: (§1) The human neuroblastoma cell line, SH-SY5Y (ECACC, UK) was maintained in Dulbecco's Modified Eagle Medium supplemented with glucose ([…]) and 10% (v/v) cosmic calf serum (Fisher Scientific, UK) at 37° C. in a humidified atmosphere of 5% CO2, 95% air and allowed to reach 70-80% confluence before seeding. Cells (passage 10-18) were plated at 10 000 cells per well in 96 well tissue culture plates (Nunc, VWR, UK) and at a density of 2×10^5 cells in 35 mm dishes for protein extraction. To induce differentiation, cells were cultured in DMEM supplemented with glucose ([…]), 1% (v/v) cosmic calf serum and 10 μM retinoic acid for 5 days. Thereafter they were incubated in DMEM supplemented with glucose ([…]), serum replacement 2 (2%; Sigma, UK) and 18 μM 5-fluorodeoxyuridine to inhibit proliferation of undifferentiated cells. The 50% of the medium was changed every 2-3 days and pharmacological treatment was carried out 7 days after switching to this medium. Reagents used were (from Sigma UK unless stated) 0.1-10 nM human leptin and leptin (116-130); 0.1-10 nM leptin (22-56; Bachem; Switzerland); 10 nM leptin (116-121) leptin (117-122), leptin (124-129) or leptin (125-130; all Severn Biotech, UK); 5 μM copper chloride; […], 5 μM WP1066 or 50 nM wortmannin. All treatments were added to the culture at the same time and survival assays were carried out after 96 h treatment. Protein samples for signaling ELISA were extracted 3 h after exposure to the relevant reagents and for biomarker expression after 72 hours.
Protein from cultures was extracted into 500 μl Tris-buffered saline containing protease inhibitor cocktail, and a Bradford assay used to determine protein concentration. Samples were diluted to give equal loading onto ELISA plates. Commercially available ELISA kits were used in accordance with the manufacturer's instructions to determine the ratio of pan-STAT3 to phospho-STAT3 (Sigma, UK) and pan-Akt to phospho-Akt (Sigma, UK) and the levels of alpha-tubulin and phosphorylated tau (Sigma, UK). Each protein sample was run in duplicate using samples derived from at least 5 biological repeats.
Hyper-phosphorylation of tau is the underpinning mechanism of the development of neurofibrillary tangles—one of the key pathological feature of AD. Human SH-SY5Y neuronal cells were exposed to Aβ1-42 alone or in combination with 10 nM leptin, leptin (116-130), leptin (116-121), leptin (117-122), leptin (124-129) or leptin (125-130). Protein was extracted for ELISA assay and the ratio of p-tau to the house-keeping protein α-tubulin determined (FIG. 11C). […] Thus for Aβ1-42-treated cells, 10 nM leptin and 10 nM leptin (116-130) reduced p-tau expression by 56.2±8.0% and 58.9+4.6% respectively compared with Aβ1-42 alone (n=5; P<0.001; FIG. 11C); an effect that was mirrored by 10 nM leptin (116-121) and leptin (117-122); 58.1±4.0% and 45.48±6.1% (n=5; P<0.001 and P<0.01 respectively; FIG. 11C), but not by 10 nM leptin (124-129) or leptin (125-130)(n=5; P>0.5; FIG. 11C).

[2] = tested on: differentiated human neural cells (SH-SY5Y); experiment: Crystal violet assay of cell number; type: cell-based
Method: as §1
The concentration of lactate dehydrogenase (LDH) in the culture medium or the mitochondrial activity within cells was used to monitor the level of cell death, as previously (Oldreive and Doherty 2010). In certain experiments, a Crystal violet assay was used to assess total cell number. Cells were fixed in neutral buffered formalin and washed 3 times in PBS prior to staining with 0.01% crystal violet acetate for 5 min. Plates were washed 5-10 times in dH2O and cells solubilised in 100 μl dimethyl sulfoxide (DMSO) before reading the absorbance on a Biohit BP100 plate reader. For all assays, data is expressed as percentage relative to control, untreated wells to normalize for differences in plating density between individual experiments.
In parallel studies a crystal violet assay was used to verify these findings by assessing cell number. In CuCl2-treated cells, there was a concentration-dependent increase in the survival of cells treated with either leptin or leptin (116-130). […] Treatment with leptin (116-130) also mirrored leptin action by increasing cell viability in Aβ1-42-treated cultures as cell number increased by 19.2±15% and 44.3±7.5% after treatment with 0.1 nM or 10 nM leptin, respectively (n=5 for each; P<0.01).

Substance	magnitude of LTP after HFS (100 Hz, 1 s) (acute hippocampal slices)	reduction of p-tau expression compared with Aβ1-42 alone [1]	increase in cell number, Aβ1-42-treated cultures ([2]; 0.1 nM)	increase in cell number, CuCl2-treated cells ([2]; 0.1 nM)	increase in cell number, Aβ1-42-treated cultures ([2]; 10 nM)	increase in cell number, CuCl2-treated cells ([2]; 10 nM)
CSLPQT (listed as Mus musculus) [leptin (117-122)]	191±19.7 % of baseline	45.48±6.1%	–	–	–	–
SCSLPQ (listed as Mus musculus) [leptin (116-121)]	162±6.3 % of baseline	58.1±4.0%	–	–	–	–
SCSLPQTSGLQKPES (listed as Mus musculus) [leptin (116-130)]	–	58.9 ± 4.6%	29.4±9.4%	27.8±10.6%	51.8±6.3%	39.9±13.5%
leptin: the metabolic hormone leptin, whole (full length) leptin molecule; human leptin from Sigma in SH-SY5Y work	–	56.2±8.0%	19.2±15%	16.7±3.4%	44.3±7.5%	43.4±9.2%
